Reference: patent US10675602B2, “Spray-drying process” (Bend Research, Inc., priority 2009, dated 2020)

Assay: Room temperature solubility in methanol
Type: physicochemical
Settings: room temperature (20° C. to 30° C.)

solubility in methanol: 0.3 wt %
Structure (SMILES): CCC(=O)O[C@]1(C(=O)SCF)[C@H](C)C[C@H]2[C@@H]3C[C@H](F)C4=CC(=O)C=C[C@]4(C)[C@@]3(F)[C@@H](O)C[C@@]21C [Active Agent 1, S-(fluoromethyl) 6α,9-difluoro-11β,17-dihydroxy-16α-methyl-3-oxoandrosta-1,4-diene-17β-carbothioate, 17-propionate]
